As a reminder, the inhibition is how much of the control response was suppressed.

The text below walks through data of patent publication US9365540B2, “Benzimidazole derivatives as MCH receptor antagonists” (Takeda Pharmaceutical Company Limited, priority 2012, dated 2016).

The first test deals with T1, human MCH receptor 1 (MCHR1) (Homo sapiens, UniProt Q99705).
T1 construct: expressed in transfected cells; host or cells: CHO cell clone 57 (membrane fraction)
T1 sequence (Q99705 whole entry): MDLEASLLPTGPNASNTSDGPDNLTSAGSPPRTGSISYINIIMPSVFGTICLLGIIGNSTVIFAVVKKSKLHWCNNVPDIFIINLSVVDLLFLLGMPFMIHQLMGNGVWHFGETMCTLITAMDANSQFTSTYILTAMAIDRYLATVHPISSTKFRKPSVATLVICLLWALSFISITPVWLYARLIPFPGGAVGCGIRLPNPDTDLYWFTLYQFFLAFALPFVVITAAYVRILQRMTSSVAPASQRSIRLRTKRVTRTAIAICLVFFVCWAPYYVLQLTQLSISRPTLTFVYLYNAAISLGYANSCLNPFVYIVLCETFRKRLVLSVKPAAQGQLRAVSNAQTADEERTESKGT
The experiment in a line: human MCH receptor 1 (MCHR1) competitive binding assay with [125I]-MCH(4-19). As to conditions: test compound 0.1 μM, human MCHR1-expressing CHO cell membrane fraction, 0.1 µM. Here is the method:
Determination of human MCH receptor 1 (MCHR1) competitive inhibitory activity of test compound using binding assay
1. Preparation of Membrane Fraction
Using human MCHR1 (=SLC-1 receptor)-expressing CHO cell clone 57 described in WO01/82925, MCHR1-expressing CHO cell membrane fractions were prepared by the following method.
In phosphate buffered saline (pH 7.4) supplemented with 5 mM EDTA (ethylenediaminetetraacetic acid) were respectively suspended human MCHR1-expressing CHO cells (1×10^8 cells) and centrifuged. Homogenate buffer (10 mL, 10 mM NaHCO3, 5 mM EDTA, pH 7.5, 0.5 mM PMSF (phenylmethylsulfonyl fluoride), 20 mg/L leupeptin, 4 mg/L E-64, 1 mg/L pepstatin A) was added to the pellets of the cells and, using Polytron Homogenizer, the mixture was homogenated. The supernatant obtained after centrifugation at 400×g for 10 min was further centrifuged at 100,000×g for 1 hr to give precipitate of the membrane fraction. The precipitate were suspended in 2 mL of assay buffer [20 mM Tris-HCl (pH 7.5), 5 mM EDTA, 0.5 mM PMSF, 20 mg/L leupeptin, 4 mg/L E-64, 1 mg/L pepstatin A]. The membrane fractions were suspended in assay buffer to a protein concentration of 2 mg/mL, and after dispensing, preserved at −80° C. and used upon thawing each time when in use.
The MCHR1 ligand binding inhibitory activity of the test compound was determined as follows.
An MCHR1-expressing CHO cell membrane fraction (173 μL) diluted with an assay buffer was dispensed to a 96 well polypropylene plate (3363, Corning). DMSO solution (2 μL), 33 μM cold MCH(1-19) diluted with DMSO solution (2 μL), or a test compound solution diluted with DMSO solution to various concentrations (2 μL) was added, and lastly, [^125I]-MCH (4-19) diluted with assay buffer (hereinafter, sometimes to be referred to as “hot MCH”, 25 μL) was added to each well. The mixture was reacted with stirring at room temperature for 1 hr, and the plate was set on FilterMate Harvester (PerkinElmer). Using a treating glass filter plate (GF/C, PerkinElmer) with polyethyleneimine, which had been previously set, the plate was suction-filtered and washed three times with washing buffer (50 mM Tris-HCl buffer pH 7.5). The glass filter plate was dried, MicroScinti0 (PerkinElmer) was added at 25 μL/well, and the resulting radioactivity was measured by TopCount liquid scintillation counter (PerkinElmer). The binding inhibition rate of the test compound was calculated by the following formula. Binding inhibition (%)=100−(radioactivity upon addition of test compound and hot MCH−radioactivity upon addition of cold MCH and hot MCH solution)/(radioactivity upon addition of DMSO solution and hot MCH−radioactivity upon addition of cold MCH and hot MCH solution)×100
The binding inhibition rates (%) of test compounds (0.1 μM) as measured using human MCHR1-expressing CHO cell are shown in Table 2.
As for `Cn1c([C@H]2C[C@@H]2F)nc2ccc(-n3ccc(OCc4ccc(Cl)cc4)cc3=O)cc21` (racemic) [Example 137, 4-((4-Chlorobenzyl)oxy)-1-(2-((1RS,2SR)-2-fluorocyclopropyl)-1-methyl-1H-benzimidazol-6-yl)pyridin-2(1H)-one], the “Binding inhibition rate % (0.1 μM)” value is recorded as 68%. For `CCc1nc2ccc(-n3ccc(OCc4ccccc4)cc3=O)cc2n1C` [Example 47, 4-(Benzyloxy)-1-(2-ethyl-1-methyl-1H-benzimidazol-6-yl)pyridin-2(1H)-one], the “Binding inhibition rate % (0.1 μM)” value is reported as 62%.

The same test, now with this note: test compound 0.1 μM, human MCHR1-expressing CHO cell membrane fraction, read-out: Binding inhibition rate % (0.1 μM).
In the case of `Cn1c([C@H]2C[C@H]2F)nc2ccc(-n3ccc(OCc4ccc(Cl)cc4)cc3=O)cc21` (racemic) [Example 136, 4-((4-Chlorobenzyl)oxy)-1-(2-((1RS,2RS)-2-fluorocyclopropyl)-1-methyl-1H-benzimidazol-6-yl)pyridin-2(1H)-one], the inhibition at 0.1 µM was determined as 69%.

`Cn1c([C@@H]2C[C@@H]2CO)nc2ccc(-n3ccc(OCc4ccc(Cl)cc4)cc3=O)cc21` (racemic) [Example 149, 4-((4-Chlorobenzyl)oxy)-1-(2-((1RS,2SR)-2-(hydroxymethyl)cyclopropyl)-1-methyl-1H-benzimidazol-6-yl)pyridin-2(1H)-one]: the inhibition at 0.1 µM was determined as 55%. As to `Cn1c([C@@H]2C[C@@H]2C(C)(C)O)nc2ccc(-n3ccc(OCc4ccccc4)cc3=O)cc21` (racemic) [Example 152, 4-(Benzyloxy)-1-(2-((1RS,2SR)-2-(2-hydroxypropan-2-yl)cyclopropyl)-1-methyl-1H-benzimidazol-6-yl)pyridin-2(1H)-one], the inhibition at 0.1 µM turned out to be 75%. On the same count and under the same terms, to `Cn1c([C@@H]2C[C@@H]2C(C)(C)F)nc2ccc(-n3ccc(OCc4ccccc4)cc3=O)cc21` (racemic) [Example 155, 4-(Benzyloxy)-1-(2-((1RS,2SR)-2-(2-fluoropropan-2-yl)cyclopropyl)-1-methyl-1H-benzimidazol-6-yl)pyridin-2(1H)-one] belongs 54%; to `Cn1c([C@@H]2C[C@@H]2C(C)(C)O)nc2ccc(-n3ccc(OCc4ccc(Cl)s4)cc3=O)cc21` (racemic) [Example 203, 4-((5-Chloro-2-thienyl)methoxy)-1-(2-((1RS,2SR)-2-(2-hydroxypropan-2-yl)cyclopropyl)-1-methyl-1H-benzimidazol-6-yl)pyridin-2(1H)-one], 91%; to `Cn1c([C@@H]2C[C@@H]2C(C)(C)O)nc2ccc(-n3ccc(OCc4ccc(Cl)cn4)cc3=O)cc21` (racemic) [Example 204, 4-((5-Chloropyridin-2-yl)methoxy)-1-(2-((1RS,2SR)-2-(2-hydroxypropan-2-yl)cyclopropyl)-1-methyl-1H-benzimidazol-6-yl)pyridin-2(1H)-one], 67%. Take `Cn1c([C@@H]2C[C@@H]2C(C)(C)O)nc2ccc(-n3ccc(OCc4ccc(F)cc4)cc3=O)cc21` (racemic) [Example 205, 4-((4-Fluorobenzyl)oxy)-1-(2-((1RS,2SR)-2-(2-hydroxypropan-2-yl)cyclopropyl)-1-methyl-1H-benzimidazol-6-yl)pyridin-2(1H)-one]: the inhibition at 0.1 µM turned out to be 76%.

Regarding `CCC(O)(CC)[C@H]1C[C@H]1c1nc2ccc(-n3ccc(OCc4ccc(Cl)cc4)cc3=O)cc2n1C` (racemic) [Example 206, 4-((4-Chlorobenzyl)oxy)-1-(2-((1RS,2SR)-2-(3-hydroxypentan-3-yl)cyclopropyl)-1-methyl-1H-benzimidazol-6-yl)pyridin-2(1H)-one], the inhibition at 0.1 µM worked out at 95%.

As to `Cn1c([C@@H]2C[C@@H]2C(C)(C)O)nc2ccc(-n3ccc(OCc4ccc(F)c(F)c4)cc3=O)cc21` (racemic) [Example 212, 4-((3,4-Difluorobenzyl)oxy)-1-(2-((1RS,2SR)-2-(2-hydroxypropan-2-yl)cyclopropyl)-1-methyl-1H-benzimidazol-6-yl)pyridin-2(1H)-one], the inhibition at 0.1 µM stood at 80%.

On to `Cn1c([C@@H]2C[C@@H]2C(C)(C)O)nc2ccc(-n3ccc(OCc4csc(Cl)c4)cc3=O)cc21` (racemic) [Example 215, 4-((5-Chloro-3-thienyl)methoxy)-1-(2-((1RS,2SR)-2-(2-hydroxypropan-2-yl)cyclopropyl)-1-methyl-1H-benzimidazol-6-yl)pyridin-2(1H)-one], for which the inhibition at 0.1 µM is 92%. With `Cn1c([C@@H]2C[C@@H]2C(C)(C)O)nc2ccc(-n3ccc(OCc4ccc(Cl)c(F)c4)cc3=O)cc21` (racemic) [Example 220, 4-((4-Chloro-3-fluorobenzyl)oxy)-1-(2-((1RS,2SR)-2-(2-hydroxypropan-2-yl)cyclopropyl)-1-methyl-1H-benzimidazol-6-yl)pyridin-2(1H)-one], the inhibition at 0.1 µM was 81%. On to `Cn1c([C@@H]2C[C@@H]2C(C)(C)O)nc2ccc(-n3ccc(OCc4ccc(F)c(Cl)c4)cc3=O)cc21` (racemic) [Example 222, 4-((3-Chloro-4-fluorobenzyl)oxy)-1-(2-((1RS,2SR)-2-(2-hydroxypropan-2-yl)cyclopropyl)-1-methyl-1H-benzimidazol-6-yl)pyridin-2(1H)-one], for which the inhibition at 0.1 µM worked out at 80%. On the same count and under the same terms, to `Cn1c([C@@H]2CC[C@@H]2C(C)(C)O)nc2ccc(-n3ccc(OCc4ccc(Cl)cc4)cc3=O)cc21` (racemic) [Example 223, 4-((4-Chlorobenzyl)oxy)-1-(2-((1RS,2SR)-2-(2-hydroxypropan-2-yl)cyclobutyl)-1-methyl-1H-benzimidazol-6-yl)pyridin-2(1H)-one] belongs 60%.

`Cc1c(C2CC2)nc2ccc(-n3ccc(OCc4ccc(C(F)(F)F)cc4)cc3=O)cn12` [Example 5, 1-(2-Cyclopropyl-3-methylimidazo[1,2-a]pyridin-6-yl)-4-((4-(trifluoromethyl)benzyl)oxy)pyridin-2(1H)-one]: the inhibition at 0.1 µM came out at 58%. As for `CCn1c(C2CC2)nc2ccc(-n3ccc(OCc4ccc(F)cc4)cc3=O)cc21` [Example 20, 1-(2-Cyclopropyl-1-ethyl-1H-benzimidazol-6-yl)-4-((4-fluorobenzyl)oxy)pyridin-2(1H)-one], the inhibition at 0.1 µM was 59%. Still for that read-out and setting: with `CCn1c(C2CC2)nc2ccc(-n3ccc(OCc4ccc(Cl)cc4)cc3=O)cc21` [Example 21, 4-((4-Chlorobenzyl)oxy)-1-(2-cyclopropyl-1-ethyl-1H-benzimidazol-6-yl)pyridin-2(1H)-one] the figure was 76%; with `Cc1c(C2CC2)nc2ccc(-n3ccc(OCc4ccc(F)cc4F)cc3=O)cn12` [Example 22, 1-(2-Cyclopropyl-3-methylimidazo[1,2-a]pyridin-6-yl)-4-((2,4-difluorobenzyl)oxy)pyridin-2(1H)-one], 81%. Same read-out and setting: to `Cc1nc2ccc(-n3ccc(OCc4ccc(Cl)cc4)cc3=O)cn2c1C` [Example 25, 4-((4-Chlorobenzyl)oxy)-1-(2,3-dimethylimidazo[1,2-a]pyridin-6-yl)pyridin-2(1H)-one] belongs 58%; to `CCCn1c(C2CC2)nc2ccc(-n3ccc(OCc4ccc(Cl)cc4)cc3=O)cc21` [Example 27, 4-((4-Chlorobenzyl)oxy)-1-(2-cyclopropyl-1-propyl-1H-benzimidazol-6-yl)pyridin-2(1H)-one], 55%. Turning to `Cc1c(C2CC2)nc2ccc(-n3ccc(OCc4ccc(Cl)cn4)cc3=O)cn12` [Example 32, 4-((5-Chloropyridin-2-yl)methoxy)-1-(2-cyclopropyl-3-methylimidazo[1,2-a]pyridin-6-yl)pyridin-2(1H)-one], the inhibition at 0.1 µM amounted to 83%.

On to `Cc1csc(COc2ccn(-c3ccc4nc(C5CC5)n(C)c4c3)c(=O)c2)c1` [Example 56, 1-(2-Cyclopropyl-1-methyl-1H-benzimidazol-6-yl)-4-((4-methyl-2-thienyl)methoxy)pyridin-2(1H)-one], for which the inhibition at 0.1 µM was 61%.

Take `COc1ccc(COc2ccn(-c3ccc4nc(C5CC5)n(C)c4c3)c(=O)c2)cc1` [Example 77, 1-(2-Cyclopropyl-1-methyl-1H-benzimidazol-6-yl)-4-((4-methoxybenzyl)oxy)pyridin-2(1H)-one]: the inhibition at 0.1 µM was 71%.
